19 molecules from ChEMBL document CHEMBL2375323, “Cu(OTf)2 catalyzed three component reaction: efficient synthesis of spiro[indoline-3,4'-pyrano[3,2-b]pyran derivatives and their anticancer potency towards A549 human lung cancer cell lines” (Bioorg Med Chem Lett, 2013) can be followed below.

In the assay the test system is A549. In words: Cytotoxicity against human A549 cells assessed as growth inhibition by MTT assay. Type of assay: functional, cell-based.
One may read the IC50 as the concentration needed to halve the response being measured. For the molecule `CCOC(=O)C1=C(N)Oc2c(oc(CO)cc2=O)C12C(=O)Nc1ccc(Cl)cc12` (centres undefined), the concentration for half-maximal inhibition (IC50) stood at 53.1 µM.

As for `N#CC1=C(N)Oc2c(oc(CO)cc2=O)C12C(=O)Nc1ccccc12` (centres undefined), the concentration for half-maximal inhibition (IC50) was 52.8 µM.

As for `N#CC1=C(N)Oc2c(oc(CO)cc2=O)C12C(=O)Nc1ccc(Cl)cc12` (centres undefined), the half-inhibitory concentration (IC50) was 51.4 µM.

Consider `COC(=O)C1=C(N)Oc2c(oc(CO)cc2=O)C12C(=O)N(Cc1ccccc1)c1ccccc12` (centres undefined), for which the IC50 stood at 55.1 µM.

As to `COC(=O)C1=C(N)Oc2c(oc(CO)cc2=O)C12C(=O)Nc1ccc(C)cc12` (centres undefined), the IC50 stood at 62.8 µM.

Turning to `N#CC1=C(N)Oc2c(oc(CO)cc2=O)C12C(=O)Nc1ccc(Br)cc12` (centres undefined), the IC50 is over 200 µM.

Turning to `C=CCN1C(=O)C2(C(C#N)=C(N)Oc3c2oc(CO)cc3=O)c2ccccc21` (centres undefined), the IC50 is 59.4 µM.

Take `CCOC(=O)C1=C(N)Oc2c(oc(CO)cc2=O)C12C(=O)Nc1ccc(F)cc12` (centres undefined): the half-maximal inhibitory concentration (IC50) was over 200 µM.

Take `COC(=O)C1=C(N)Oc2c(oc(CO)cc2=O)C12C(=O)Nc1ccc([N+](=O)[O-])cc12` (centres undefined): the half-inhibitory concentration (IC50) came to 55.9 µM.

For the molecule `CCOC(=O)C1=C(N)Oc2c(oc(CO)cc2=O)C12C(=O)Nc1ccc(C)cc12` (centres undefined), the IC50 came to 52.9 µM.

Regarding `N#CC1=C(N)Oc2c(oc(CO)cc2=O)C12C(=O)N(Cc1ccccc1)c1ccccc12` (centres undefined), the concentration for half-maximal inhibition (IC50) is over 200 µM.

Turning to `COC(=O)C1=C(N)Oc2c(oc(CO)cc2=O)C12C(=O)Nc1ccccc12` (centres undefined), the IC50 was found to be 56.2 µM.

For `N#CC1=C(N)Oc2c(oc(CO)cc2=O)C12C(=O)Nc1ccc(F)cc12` (centres undefined), the half-maximal inhibitory concentration (IC50) was over 200 µM.

For the molecule `CCOC(=O)C1=C(N)Oc2c(oc(CO)cc2=O)C12C(=O)Nc1ccccc12` (centres undefined), the IC50 was over 200 µM.

With `CCOC(=O)C1=C(N)Oc2c(oc(CO)cc2=O)C12C(=O)N(C)c1ccccc12` (centres undefined), the IC50 is 55.8 µM.

For the molecule `C=CCN1C(=O)C2(C(C(=O)OCC)=C(N)Oc3c2oc(CO)cc3=O)c2ccccc21` (centres undefined), the IC50 was 54.6 µM.

With `CN1C(=O)C2(C(C#N)=C(N)Oc3c2oc(CO)cc3=O)c2ccccc21` (centres undefined), the IC50 came out at 51.1 µM.

Take `CCOC(=O)C1=C(N)Oc2c(oc(CO)cc2=O)C12C(=O)Nc1ccc(Br)cc12` (centres undefined): the IC50 turned out to be 52.8 µM.

Take `C#CCN1C(=O)C2(C(C#N)=C(N)Oc3c2oc(CO)cc3=O)c2ccccc21` (centres undefined): the IC50 was over 200 µM.
